These results are taken from ChEMBL document CHEMBL5352397, “Exploring gabosine and chlorogentisyl alcohol derivatives from a marine-derived fungus as EcGUS inhibitors with informatic assisted approaches” (Eur J Med Chem, 2022).

Usually inhibition stands for the drop in the measured response relative to a control, in per cent. The IC50 is the midpoint of a concentration-inhibition curve. As a reminder, the Ki is a dissociation constant, usually derived from enzyme kinetics or from competition with a known ligand.

Each structure is given as a SMILES string. Active and inactive are the calls of the source. No cut-off for these calls is given here.

For assay [1], the target named is Beta-glucuronidase (Escherichia coli (strain K12)) (UniProt P05804). Kind of assay: Inhibition of Escherichia coli beta-glucuronidase assessed as reduction of p-nitrophenol release using beta-PNPG as substrate at 10 uM incubated for 30 mins by Spectra max microplate reader analysis relative to control.
Beta-glucuronidase (Escherichia coli (strain K12)), sequence (P05804 whole entry, looked up): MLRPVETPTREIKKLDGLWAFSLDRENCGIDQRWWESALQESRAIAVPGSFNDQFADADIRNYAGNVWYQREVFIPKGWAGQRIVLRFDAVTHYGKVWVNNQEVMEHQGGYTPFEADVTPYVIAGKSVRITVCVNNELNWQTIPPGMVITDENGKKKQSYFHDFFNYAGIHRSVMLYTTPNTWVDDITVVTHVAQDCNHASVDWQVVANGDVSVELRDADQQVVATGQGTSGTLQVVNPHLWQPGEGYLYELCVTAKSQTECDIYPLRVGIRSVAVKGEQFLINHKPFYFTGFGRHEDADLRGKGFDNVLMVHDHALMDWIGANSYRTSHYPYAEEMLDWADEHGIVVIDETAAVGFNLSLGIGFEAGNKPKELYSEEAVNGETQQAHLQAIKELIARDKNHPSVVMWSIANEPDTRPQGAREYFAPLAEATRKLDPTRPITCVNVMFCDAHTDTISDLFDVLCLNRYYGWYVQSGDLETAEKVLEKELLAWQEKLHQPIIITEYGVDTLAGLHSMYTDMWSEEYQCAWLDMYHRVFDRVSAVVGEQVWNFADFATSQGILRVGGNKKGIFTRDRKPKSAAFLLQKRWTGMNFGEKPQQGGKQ
The next assay deals with NAMALVA. Kind of assay: Antiproliferative activity against human NAMALVA cells assessed as cell viability at 20 uM incubated for 48 hrs by MTT assay. In kind it is functional. Conditions: read-out: Activity.
The target in assay [2] is T1, Beta-glucuronidase (Escherichia coli (strain K12), UniProt P05804). In words: Inhibition of Escherichia coli beta-glucuronidase assessed as reduction of p-nitrophenol release using beta-PNPG as substrate incubated for 30 mins by Spectra max microplate reader analysis.
T1 sequence (P05804 whole entry): as the sequence (P05804 whole entry, looked up) above
The nature of assay [3]: Antiproliferative activity against human U266B cells assessed as cell viability at 20 uM incubated for 48 hrs by MTT assay. In kind it is functional. The note with it: read-out: Activity. In general terms: Tetrazolium assays rely on reduction of a dye to a coloured formazan, in cell work by metabolically active cells.
Assay [4] addresses T1, Beta-glucuronidase. Kind of assay: Inhibition of Escherichia coli beta-glucuronidase assessed as inhibition constant using beta-PNPG as substrate incubated for 30 mins by Lineweaver-Burk plot analysis.
For assay [5], the target named is Beta-glucuronidase (Escherichia coli (strain K12)) (UniProt P05804). In words: Inhibition of Escherichia coli beta-glucuronidase using beta-PNPG as substrate at 2 to 8 uM incubated for 30 mins by Lineweaver-Burk plot analysis. The note with it: dose 2-8 µM.
For assay [6], the target named is T1, Beta-glucuronidase. Kind of assay: Non-competitive inhibition of Escherichia coli beta-glucuronidase assessed as inhibition constant using beta-PNPG as substrate incubated for 30 mins by Lineweaver-Burk plot analysis.
Assay [7] concerns the target Beta-glucuronidase (Escherichia coli (strain K12)) (UniProt P05804). In words: Non-competitive inhibition of Escherichia coli beta-glucuronidase assessed as reduction of p-nitrophenol release using beta-PNPG as substrate at 10 uM incubated for 30 mins by Spectra max microplate reader analysis relative to control.
For assay [8], the target named is T1, Beta-glucuronidase. Kind of assay: Non-competitive inhibition of Escherichia coli beta-glucuronidase assessed as reduction of p-nitrophenol release using beta-PNPG as substrate incubated for 30 mins by Spectra max microplate reader analysis.
The target in assay [9] is Beta-glucuronidase (Escherichia coli (strain K12)) (UniProt P05804). Kind of assay: Inhibition of Escherichia coli beta-glucuronidase using beta-PNPG as substrate at 50 to 100 uM incubated for 30 mins by Lineweaver-Burk plot analysis. The note with it: dose 50-100 µM.

In the case of `O=C(O)c1cc(=O)c2ccccc2[nH]1`, the inhibition in assay [1] stood at 10.8%.
For the compound `C[C@@H]1C[C@@H](O)[C@H](O[C@@H]2[C@@H](O)C=C(Cl)C(=O)[C@]23CCc2cc(O)cc(Cl)c2O3)C[C@@H]1O`, the inhibition in assay [1] is 15.3%.
`O=C1C(Cc2cc(O)cc(Cl)c2O)=C[C@H](O)[C@@H](O)[C@@]12CCc1cc(O)c(Cl)c(Cl)c1O2`: the inhibition in assay [1] was 98%. Further, the values for the viability at 20 µM (in the assay on NAMALVA; in assay [3]) were 83.9% and 95%, respectively. Further, the IC50 at Beta-glucuronidase [2] was determined as 0.24 µM. The Ki on Beta-glucuronidase [4] is 1.09 µM. Also, in assay [5], the inhibition result was “Active”.
`O=Cc1cc(O)cc(Cl)c1O`: the inhibition in assay [1] was found to be 69%.
`O=C1C(Cl)=C[C@H](O)[C@@H](O)[C@]12CCc1cc(O)cc(Cl)c1O2`: the inhibition in assay [1] was determined as 49.9%.
As to `O=C1C(Cl)=C[C@H](O)[C@H](O)[C@@]12CCc1cc(O)cc(Cl)c1O2`, in assay [1], the inhibition was found to be 86.3%. The viability at 20 µM was -0.33% with NAMALVA and 52.6% in [3]. Further, the IC50 at Beta-glucuronidase [2] stood at 2.15 µM. In addition, at Beta-glucuronidase [4], the Ki came out at 4.43 µM.
For `O=C(OCc1cc(O)cc(Cl)c1O)c1cnccc1O`, in that order: 87.9%, 39.4%, 94.9%, 1.95 µM and 1.55 µM.
With `Cc1cc(O)c(Cc2cc(O)cc(Cl)c2O)c(=O)o1`, in assay [1], the inhibition stood at 20.1%.
`C[C@H]1C[C@H](OCc2cc(O)cc(Cl)c2O)[C@@H](O)C[C@H]1O`: the inhibition in [1] was 92.1%. In addition, the viability at 20 µM was determined as 71.7% in the assay on NAMALVA and 77.8% in [3]. The IC50 at Beta-glucuronidase [2] came out at 0.64 µM. Also, on Beta-glucuronidase [4], the Ki was found to be 4.27 µM.
Consider `O=c1[nH]cc(F)c(=O)[nH]1` [FLUOROURACIL], for which the results for the viability at 20 µM (in the assay on NAMALVA; in assay [3]) were 11.3% and 0%, respectively.
Consider `CCC1=C[C@@H](O)[C@@H](O)[C@H](Cl)C1=O`, for which the viability at 20 µM with NAMALVA stood at 79.2%; in [3] it was 96.3%. Also, the Ki on Beta-glucuronidase [6] stood at 1.26 µM. Moreover, the inhibition in assay [7] was 99.1%. On Beta-glucuronidase [8], the IC50 was found to be 1.26 µM.
`O=C(O)[C@@H](O)[C@H]1OC(=O)[C@H](O)[C@H]1O` [D-SACCHARIC ACID 1,4-LACTONE]: in assay [9], the inhibition result was “Active”. Further, the inhibition in assay [1] was 11.6%. Moreover, at Beta-glucuronidase [2], the IC50 was 56.7 µM.
Turning to `OCc1cc(O)cc(Cl)c1O`, the viability at 20 µM in the assay with NAMALVA stood at 70.4%; in assay [3], 94.1%. The Ki on Beta-glucuronidase [6] was found to be 0.58 µM. The inhibition in assay [7] was 101%. Also, the IC50 at Beta-glucuronidase [8] amounted to 0.74 µM.
With `Cc1cccc(O)c1C(=O)O[C@@H]1C(=O)C(CO)=C[C@@H](O)[C@H]1O`, the inhibition in [1] worked out at 27.6%.
Regarding `O=C1C(Cl)=C[C@H](O)[C@@H](O)[C@@]12CCc1cc(O)cc(Cl)c1O2`, the inhibition in assay [1] is 96.5%. In addition, the viability at 20 µM with NAMALVA came out at 37%; in assay [3], 79.6%. In addition, the half-inhibitory concentration (IC50) on Beta-glucuronidase [2] turned out to be 2.83 µM. Moreover, at Beta-glucuronidase [4], the Ki amounted to 1.16 µM.
Regarding `Oc1cc(Cl)c(O)c(COCc2cc(O)cc(Cl)c2O)c1`, the inhibition in [1] worked out at 101%. The results for the viability at 20 µM (in the assay on NAMALVA; in [3]) were 56.6% and 88.6%, respectively. Also, on Beta-glucuronidase [2], the IC50 worked out at 0.58 µM. For the same compound, the Ki at Beta-glucuronidase [4] came out at 0.71 µM.
Turning to `Cc1cc2c(c(=O)o1)C[C@H]1C(=O)[C@@H](O)[C@H](O)[C@H](O)[C@H]1O2`, the inhibition in assay [1] was found to be 25.6%.
As to `Cc1cc2c(c(=O)o1)C[C@@H]1C(=O)C(Cl)=C[C@H](O)[C@H]1O2`, the inhibition in assay [1] came to 55.1%.
Regarding `CO[C@@H]1[C@@H](O)C=C(Cl)C(=O)[C@]12CCc1cc(O)cc(Cl)c1O2`, the inhibition in assay [1] was 98.4%. Further, the figures for the viability at 20 µM (in the assay with NAMALVA; in assay [3]) were 58.3% and 84.9%, respectively. The half-maximal inhibitory concentration (IC50) on Beta-glucuronidase [2] was 1.42 µM. In addition, on Beta-glucuronidase [4], the Ki was found to be 2.66 µM.
For the compound `CCCCOCC1=C[C@@H](O)[C@@H](O)[C@H](O)C1=O`, in assay [1], the inhibition is 39.3%.
As for `CCCCO[C@@H]1C(=O)C(C)=C[C@@H](O)[C@H]1O`, the inhibition in [1] stood at 86.5%. Also, the viability at 20 µM in the assay on NAMALVA worked out at 91.7%; in assay [3] it was 109%. Moreover, the IC50 on Beta-glucuronidase [2] was 4.61 µM. Moreover, the Ki at Beta-glucuronidase [4] was determined as 7.32 µM.
For `CC1=C[C@@H](O)[C@@H](O)[C@H](Cl)C1=O`, in assay [1], the inhibition was found to be 100%. Also, the viability at 20 µM worked out at 113% with NAMALVA and 105% in assay [3]. On Beta-glucuronidase [2], the IC50 was determined as 1.01 µM. In addition, the Ki at Beta-glucuronidase [4] was determined as 0.67 µM.
Regarding `C[C@H]1C[C@H](O)[C@@H](OCc2cc(O)cc(Cl)c2O)C[C@H]1O`, the inhibition in assay [1] was 91.8%. Besides, the figures for the viability at 20 µM (with NAMALVA; in assay [3]) were -3.03% and 7.86%, respectively. Moreover, the IC50 on Beta-glucuronidase [2] was found to be 0.4 µM. Moreover, the Ki on Beta-glucuronidase [4] was 3.47 µM. Besides, the inhibition result in assay [5] is “Active”.
Turning to `C[C@H]1C[C@H](O)[C@@H](O)C[C@H]1OCc1cc(O)cc(Cl)c1O`, in [1], the inhibition turned out to be 92.8%. Further, the viability at 20 µM turned out to be 71.6% in the assay with NAMALVA and 115% in [3]. In addition, the IC50 on Beta-glucuronidase [2] came to 0.63 µM. The Ki at Beta-glucuronidase [4] came to 1.64 µM.
Take `COCc1cccc(Cl)c1O`: in assay [1], the inhibition turned out to be 7.73%.
Same read-out and setting: to `Cc1cc2c(c(=O)o1)C[C@H]1[C@@H](O)[C@H](O)[C@H](O)[C@H]3c4c(cc(C)oc4=O)O[C@]31O2` belongs 5.16%.
For `O=C1C(COCc2cc(O)cc(Cl)c2O)=C[C@@H](O)[C@@H](O)[C@@H]1Cl`, the inhibition in assay [1] came to 87.1%. For the same compound, the results for the viability at 20 µM (in the assay with NAMALVA; in assay [3]) were 65.1% and 105%, respectively. The IC50 at Beta-glucuronidase [2] turned out to be 1.91 µM. In addition, the Ki on Beta-glucuronidase [4] was 0.86 µM.
